# Results: US9370521B2, “Targeting GLI proteins in human cancer by small molecules” (The Regents of the University of California, priority 2011, dated 2016)
# Legend:
# mesothelioma MS-1 = assay: In vivo efficacy, Mouse Xenograft Model (mesothelioma MS-1); settings: MS-1 xenograft, 50 mg/kg i.p. daily for 14 days, vs control group, FIG. 2
# Procedure: (§1) The administered compounds were tested in vivo in the mouse xenograft model bearing human cancer cells. Briefly, female athymic nude mice strain NCRNU-M (5-10 weeks old, 20-25 grams in weight; Taconic, Germantown, N.Y.) was maintained in pathogen-free conditions. Three human cancer cell lines: NSCLC A549, melanoma MelJuso, and mesothelioma MS-1 were used. Five or ten mice were used in each group and injected s.c. with 3×10^6 cancer cells in the dorsal area in a volume of 100 μl. After inoculation, human cancer cells were allowed to grow in mice for 10-13 days to become visible tumor nodules. Animals were then injected with a compound of the embodiments at a dose of 50 mg/kg body weight (1 mg/mouse per day). Vehicle alone was used as control. The compounds and controls were adjusted in 40 ul volume for i.p. injection in the abdomens of the mice. Injections were performed daily around the same time for 14 days. Tumors were allowed to grow for 1-2 additional weeks after completion of the compound treatments. Tumor size was measured every three to four days, and tumor volumes were calculated using width (x) and length (y) (x^2y/2, where x<y). Throughout this period, general toxicity of the treatments was also monitored by measuring body weight of the mice. […]
# Model (Mesothelioma MS-1). […] Tumor sizes was measured twice weekly until the completion of the experiments. […]
# NSCLC A549 = assay: In vivo efficacy, Mouse Xenograft Model (lung cancer A549); settings: 50 mg/kg i.p. daily for 14 days then another 7 days, tumors weighed day 43, vs control group, FIG. 3
# Procedure: as §1, with “Tumors were allowed to grow for 1-2 additional weeks after completion of the compound treatments.” left out
# In vivo efficacy study of Compounds 1 and 4 in Mouse Xenograft Model (NSCLC A549) was examined. […] 43 days after the initial tumor inoculation, tumors were dissected from the mice of each group and their weights were measured using a scale. […]
# [1] = Histological examination (H&E) of organs for toxicity; assay type: in vivo; settings: mice, i.p. two doses daily for 6 days, FIGS. 8-11
# From the text: After the in vivo studies were completed, different organs were resected from mice. These organs included liver, lung, heart, kidney, intestines, ovary, brain, spleen, skin, and muscle. The specimens were fixed in 4% buffered formaldehyde, embedded in paraffin, sectioned, and histologically analyzed by hematoxylin and eosin (HE) staining. The HE stained slides were examined by a mouse pathologist for toxicity evidence from all the organs as compared with vehicle controls. In addition, leukocytes (WBC: white blood cell, NE: neutrophil, LY: lymphocyte, MO: monocyte, EO: eosinophil, BA: basophil) from each animal from all treatment groups were collected and leukocyte population was counted through a blood cell counter.
# To analyze toxicity of the Compounds 1, 2, 4, and 6 in vivo, each group (three mice) was i.p. injected with two doses of each Compound daily for 6 days, and then major mouse organs, such as liver, spleen, kidney, and heart were resected from the mice. The specimens will be fixed in 4% buffered formaldehyde, embedded in paraffin, sectioned and histologically analyzed by hematoxylin and eosin (H&E) staining.
# human NSCLC cell lines = assay: Combination treatment, MTS cell proliferation assay, NSCLC cell lines; assay type: cell-based; settings: lung cancer cells, 72 hours, Combination Index, FIG. 12
# From the text: (§2) Another assay for determining the number of viable cells in proliferation or cytotoxicity assays is the MTS assay, a colorimetric method. MTS assay reagents are commercially available (Promega Corp., Madison, Wis.). The reagent contains a tetrazolium compound [3-(4,5-dimethylthiazol-2-yl)-5-(3-carboxymethoxyphenyl)-2-(4-sulfophenyl)-2H-tetrazolium, inner salt; MTS] and an electron coupling reagent (phenazine ethosulfate; PES). PES has enhanced chemical stability, which allows it to be combined with MTS to form a stable solution. The MTS tetrazolium compound (Owen's reagent) is bioreduced by cells into a colored formazan product that is soluble in tissue culture medium. This conversion may be accomplished by NADPH or NADH produced by dehydrogenase enzymes in metabolically active cells. The quantity of formazan product as measured by the absorbance at 490 nm is directly proportional to the number of living cells in culture. Because the MTS formazan product is soluble in tissue culture medium, this assay requires fewer steps than procedures that use tetrazolium compounds such as MTT. The formazan product of MTT reduction is a crystalline precipitate that requires an additional step in the procedure to dissolve the crystals before recording absorbance readings at 570 nm.
# (§3) Combination treatments of the Compounds with several chemotherapies: erlotinib (Tarceva®), PI3K inhibitor LY294002, TGFβ inhibitor SB431542, and pemetrexed (Alimta®) were performed in human NSCLC and MM cell lines (FIGS. 12-17). In all experiments, NSCLC and MM cell lines were treated with different doses of each compound or combination for 72 hours, and MTS assays were performed to determine the cell proliferations. Combination Index (CI), calculated by CalcuSyn software (Biosoft, Cambridge, UK), was applied to describe the effect of the combination effects of two compounds, where CI<1 indicates Synergism, CI=1 indicates Additive effects, and CI>1 indicates Antagonism. Student's t-tests were applied for statistical analysis.
# [2] = tested on: human MM cell lines (mesothelioma cells); assay: Combination treatment, MTS cell proliferation assay, MM (mesothelioma) cell lines; assay type: cell-based; settings: 72 hours, Combination Index, FIG. 13
# From the text: as §2, §3
compound,measurement,setting,value
"CCCC1C(C(=O)NCCCC(C)(C)CO)C(c2ccc(F)cc2)=NN1c1ccccc1 (centres unmarked) [Compound 4, 3-(4-fluoro-phenyl)-1-phenyl-5-propyl-4,5-dihydro-1H-pyrazole-4-carboxylic acid (5-hydroxy-4,4-dimethyl-pentyl)-amide]",Tumor weight after treatment,mesothelioma MS-1,significantly decreased
same,Tumor weight after treatment,NSCLC A549,significantly decreased
same,"Toxicity in organs (liver, spleen, kidney, heart), H&E histology",[1],No noticeable toxicity
same,Combination effect with erlotinib (Tarceva),human NSCLC cell lines,synergy
same,Combination effect with erlotinib (Tarceva),[2],synergy
